The subject of one data set is taste of SD rats. The data set can be described thus: Rat taste test (quinine water / tap water drinking). Format: in vivo. The method, then: Experimental purpose: to observe an effect of title compounds on taste of SD rats.
• 1.1) Animals and grouping: 40 male SD rats, with about 300 grams per rat. […] A bottle of normal drinking water and a bottle of drinking water containing 0.3 mM quinine hydrochloride were placed in each cage at the same time, and left and right positions where the two bottles of water were placed in all animal feeding cages were the same. After the animals were allowed to freely drink water for 15 minutes, drinking amounts of the two bottles of water were measured respectively to the nearest 0.1 mL. • 1.5) Data statistics: drinking amounts of quinine bitter water and tap water and a total water drinking amount thereof as well as a percentage of quinine water in the total water drinking amount were counted respectively. Water drinking amounts of the bitter water of animals in each group were compared. Whether differences between groups were significant was compared by analysis of variance. 2) Experimental Results

For a further data set, the system named is chronic cough. To be noted: literature, cited from earlier work.
The next data set concerns the target T1, rP2X3 (Rattus norvegicus, UniProt P49654).
T1 construct: expressed in transfected cells; host or cells: HEK293
T1 sequence (P49654 1-397): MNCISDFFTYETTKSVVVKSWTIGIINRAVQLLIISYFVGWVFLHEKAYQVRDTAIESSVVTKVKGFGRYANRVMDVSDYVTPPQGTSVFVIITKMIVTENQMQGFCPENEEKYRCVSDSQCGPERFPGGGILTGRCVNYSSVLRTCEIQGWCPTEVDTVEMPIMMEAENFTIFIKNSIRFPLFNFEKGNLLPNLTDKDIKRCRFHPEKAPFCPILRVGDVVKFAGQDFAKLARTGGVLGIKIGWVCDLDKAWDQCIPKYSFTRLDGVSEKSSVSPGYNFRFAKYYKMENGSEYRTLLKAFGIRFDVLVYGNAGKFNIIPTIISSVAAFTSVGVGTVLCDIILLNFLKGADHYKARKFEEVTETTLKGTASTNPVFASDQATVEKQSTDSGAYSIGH
Briefly: Inhibitory activity against P2X3 in rats (electrophysiological method). It is filed as cell-based.

The target of another data set is T2, gpP2X3 (Cavia porcellus, UniProt H0VWY5).
T2 sequence (H0VWY5 1-391): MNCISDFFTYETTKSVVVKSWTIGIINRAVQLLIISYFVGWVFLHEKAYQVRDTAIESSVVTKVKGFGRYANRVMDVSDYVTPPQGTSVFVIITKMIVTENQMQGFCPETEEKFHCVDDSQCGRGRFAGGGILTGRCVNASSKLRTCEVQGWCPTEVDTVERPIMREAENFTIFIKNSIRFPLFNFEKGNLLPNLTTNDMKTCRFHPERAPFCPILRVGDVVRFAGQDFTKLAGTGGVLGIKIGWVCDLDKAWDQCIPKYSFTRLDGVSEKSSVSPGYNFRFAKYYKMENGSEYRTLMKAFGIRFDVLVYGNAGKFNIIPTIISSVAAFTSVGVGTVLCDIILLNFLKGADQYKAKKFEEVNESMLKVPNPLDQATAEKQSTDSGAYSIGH
The data set can be described thus: Inhibitory activity against P2X3 in guinea pigs (electrophysiological method). It is filed as cell-based. The conditions noted are these: guinea pig P2X3, electrophysiological method.

Another data set has as its target T3, human PAR-1 (Homo sapiens, UniProt P25116).
T3 construct: host or cells: HEK293/Ga15 recombinant cell line
T3 sequence (P25116 22-425): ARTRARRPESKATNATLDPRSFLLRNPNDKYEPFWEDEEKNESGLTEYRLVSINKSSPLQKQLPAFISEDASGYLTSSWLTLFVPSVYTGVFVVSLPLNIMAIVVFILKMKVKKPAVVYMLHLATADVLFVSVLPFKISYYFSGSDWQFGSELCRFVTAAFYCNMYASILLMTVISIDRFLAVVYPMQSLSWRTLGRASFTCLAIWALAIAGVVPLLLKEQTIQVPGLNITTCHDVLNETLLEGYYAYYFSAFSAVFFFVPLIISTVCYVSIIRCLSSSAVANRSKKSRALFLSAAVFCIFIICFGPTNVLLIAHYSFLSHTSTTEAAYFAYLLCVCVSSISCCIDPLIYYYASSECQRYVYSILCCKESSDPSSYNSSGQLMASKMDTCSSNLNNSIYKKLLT
Briefly: Inhibitory activity against PAR-1, calcium ion flux fluorescence method (FLIPR). The conditions noted are these: HEK293/Ga15 cells expressing human PAR-1, TFLLR-NH2 10 μM, starting concentration 30 μM. Format: cell-based. How it is done:
The inhibitory activity of the title compounds against human PAR-1 was determined by a calcium ion flux fluorescence method (an FLIPR method). The method thereof was reported in the literature of Zhong et al. [Zhong et al. J Biomol Struct Dyn, 2017, 35(13):2853].
An HEK293/Ga15 recombinant cell line (HD Biosciences, Shanghai, China) stably expressing human PAR-1 was cultured in a DMEM (Thermo Fisher Scientific, Shanghai) culture solution (containing 10% calf serum, 800 μg/mL G418). Incubator conditions were 37° C. and an air humidity with 5% CO2.
On the first day, 20 μL per well of PAR-1 cells at a concentration of 4E+5 cells/mL were seeded in a 384-well analysis plate (Corning 3712). […] On the second day, a culture solution in each well was poured off. Then, 20 μL of 1×loading dye (2 μM Fluo-8 AM in 1×HBSS with 20 mM HEPES, 1 mM Probenecid, 0.025% Pluronic F-127 assay buffer) was added in each well. The cell analysis plate was cultured for 1 hour at a room temperature.
The compounds were dissolved into 100% DMSO to prepare a 10 mM stock solution, which was stored at −20° C. On the day of use, the compound stock solution was thawed at a room temperature. Each compound was subjected to 1:3 serial dilution at 11 concentration points with a DMEM culture solution with a starting concentration of 30 μM. Each compound was subjected to double dilution for testing. A positive control compound was diluted in the same way with SCH79797 with a starting concentration of 30 μM.
The cell analysis plate was placed in a FLIPR instrument (Molecular Device) and 10 μL of compounds (3× of a final concentration) in a compound plate was added to corresponding wells of the cell analysis plate. After 10 minutes, 10 μL of TFLLR-NH2 (TFA) (a final concentration of 10 μM) was added to each well to stimulate generation of intracellular calcium flux signals. Ca^++-dependent fluorescence signals were continuously monitored at excitation wavelengths of 470/495 nm and emission wavelengths of 515/575 nm to analyze the inhibitory activity of the compounds.
Data were collected and analyzed by using an FLIPR program. The inhibitory (or agonistic) activity of the compounds at each concentration was assessed by fluorescence peaks. IC50 values of the compounds were calculated by using EXCEL and PRISM programs.

The next data set concerns the target T4, human P2X4 (Homo sapiens, UniProt Q99571).
T4 construct: expressed in transfected cells; host or cells: HEK293
T4 sequence (Q99571 1-388): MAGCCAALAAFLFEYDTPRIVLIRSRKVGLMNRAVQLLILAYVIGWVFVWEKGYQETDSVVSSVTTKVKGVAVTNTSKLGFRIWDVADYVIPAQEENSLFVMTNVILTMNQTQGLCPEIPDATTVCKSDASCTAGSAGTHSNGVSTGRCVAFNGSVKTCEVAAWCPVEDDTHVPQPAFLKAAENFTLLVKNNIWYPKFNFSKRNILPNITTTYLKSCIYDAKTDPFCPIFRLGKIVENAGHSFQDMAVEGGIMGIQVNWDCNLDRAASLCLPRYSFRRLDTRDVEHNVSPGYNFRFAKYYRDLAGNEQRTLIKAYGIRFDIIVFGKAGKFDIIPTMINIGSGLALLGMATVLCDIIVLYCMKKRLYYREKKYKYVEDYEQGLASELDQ
Briefly: Inhibitory activity against human P2X4 (electrophysiological method). Format: cell-based. The conditions noted are these: read-out: hP2X4 (IC50).

The target of data set [1] is T5, human P2X3 (Homo sapiens, UniProt P56373).
T5 sequence (P56373 1-397): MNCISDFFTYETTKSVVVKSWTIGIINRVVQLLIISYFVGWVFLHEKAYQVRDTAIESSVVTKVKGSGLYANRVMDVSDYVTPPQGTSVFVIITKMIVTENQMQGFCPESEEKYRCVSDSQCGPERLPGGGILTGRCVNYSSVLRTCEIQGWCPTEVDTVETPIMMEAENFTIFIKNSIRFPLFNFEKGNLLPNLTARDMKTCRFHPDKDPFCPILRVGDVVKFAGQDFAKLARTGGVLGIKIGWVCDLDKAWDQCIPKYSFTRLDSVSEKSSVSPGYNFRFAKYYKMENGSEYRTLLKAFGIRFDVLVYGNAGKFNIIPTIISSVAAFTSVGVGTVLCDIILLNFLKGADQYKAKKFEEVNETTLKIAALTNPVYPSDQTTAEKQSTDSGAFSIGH
Briefly: cell-based.

The target of another data set is T6, human P2X2/3 (Homo sapiens, UniProt P56373+Q9UBL9).
T6 construct: expressed in transfected cells; host or cells: HEK293
T6 sequence (P56373 1-397): T5 sequence (P56373 1-397)
T6 sequence (Q9UBL9 1-471): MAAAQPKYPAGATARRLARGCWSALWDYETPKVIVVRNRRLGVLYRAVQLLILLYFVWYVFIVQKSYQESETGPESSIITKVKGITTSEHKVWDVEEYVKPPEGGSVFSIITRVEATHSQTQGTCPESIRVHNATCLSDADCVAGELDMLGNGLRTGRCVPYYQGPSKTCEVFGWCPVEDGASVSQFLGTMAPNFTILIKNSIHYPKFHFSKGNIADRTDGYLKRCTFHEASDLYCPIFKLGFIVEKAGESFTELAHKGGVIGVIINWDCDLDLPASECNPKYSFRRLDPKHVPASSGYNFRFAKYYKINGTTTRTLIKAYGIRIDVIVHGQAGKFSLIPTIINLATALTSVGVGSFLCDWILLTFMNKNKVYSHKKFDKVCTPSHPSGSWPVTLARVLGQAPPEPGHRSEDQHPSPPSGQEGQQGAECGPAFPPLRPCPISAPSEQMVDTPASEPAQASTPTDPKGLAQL
The data set can be described thus: Inhibitory activity against human P2X2/3 (electrophysiological method). It is filed as cell-based. To be noted: read-out: hP2X2/3 (IC50).

Data set [2] concerns the target T5, human P2X3. Briefly: Inhibitory activity against human P2X3, perforated patch clamp (electrophysiological method). To be noted: read-out: hP2X3 (IC50), transfected HEK293 cells, agonist ATP 1 μM, compounds pre-administered for 2 minutes. For orientation: Patch clamp records ionic current or voltage across a cell membrane.

pIC50: −log10 of the molar value.

We go through seven compounds from US12668589B2, “N-formamidopyrazoline derivative as P2X3 receptor antagonist and use thereof” (HANGZHOU WESTAN PHARMACEUTICAL TECHNOLOGY CO., LTD, priority 2020, dated 2026).

`COc1cc(C(C)C)c(Oc2cnc(N)nc2N)cc1S(N)(=O)=O` [AF-219, reference compound]: in the data set on taste of SD rats (10 mg/kg intraperitoneal injection, free drinking 15 minutes, amounts measured to the nearest 0.1 mL), the “Water drinking amount, Tap water” value is 8.69. In the data set with taste of SD rats (10 mg/kg intraperitoneal injection, tap plus quinine water, 15 minutes, measured to the nearest 0.1 mL), the “Water drinking amount, Sum” value worked out at 14.02. Besides, in the data set on taste of SD rats (10 mg/kg intraperitoneal injection, water with 0.3 mM quinine hydrochloride, 15 minutes, measured to the nearest 0.1 mL), the “Water drinking amount, Quinine” value stood at 5.33. Also, the “drinking amount of bitter water compared with solvent control group” value in the data set with taste of SD rats (10 mg/kg intraperitoneal, result in words) is given as “increased significantly”. For the same compound, the “frequency and severity of cough in patients with chronic cough” value in the data set on chronic cough (clinical data) was “significantly effective in reducing the frequency and severity of cough”. The “taste disorders in treated subjects” value in the data set on chronic cough (clinical trials) is “can lead to taste disorders”.
As for `Cc1ccc(C2=NN(C(=O)N[C@H](C)c3ccc(C(F)(F)F)nc3)C[C@@H]2N2CCN(C)CC2=O)cc1` [Compound 17, (S)-4-(4-methyl-2-oxopiperazin-1-yl)-3-(4-methylphenyl)-N-((R)-1-(6-(trifluoromethyl)pyridin-3-yl)ethyl)-4,5-dihydro-1H-pyrazol-1-carboxamide], the results for the pIC50 on rP2X3, at gpP2X3 and on human PAR-1 were 6.85, 6.41 and under 4.52, respectively.
Consider `Cc1ccc(C2=NN(C(=O)N[C@H](C)c3ccc(C(F)(F)F)nc3)C[C@@H]2N2CCCC2=O)cc1` [Compound 21], for which the pIC50 at human P2X4 was under 4.70; on human PAR-1, under 4.52; against human P2X3 [1], 6.89.
With `Cc1ccc(C2=NN(C(=O)N[C@H](C)c3ccc(C(F)(F)F)nc3)C[C@H]2N2CCOC2=O)cc1` [Compound 22a, (R)-4-(2-oxooxazolidin-3-yl)-3-(4-methylphenyl)-N-((R)-1-(6-(trifluoromethyl)pyridin-3-yl)ethyl)-4,5-dihydro-1H-pyrazol-1-carboxamide], the pIC50 against rP2X3 is 7.24; on gpP2X3, 6.24; at human P2X4, under 4.70; at human P2X3 [1], 7.42.
Turning to `Cc1ccc(C2=NN(C(=O)N[C@H](C)c3ccc(C(F)(F)F)nc3)C[C@@H]2N2CCOC2=O)nc1` [Compound 23, (S)-4-(2-oxooxazolidin-3-yl)-3-(5-methylpyridin-2-yl)-N-((R)-1-(6-(trifluoromethyl)pyridin-3-yl)ethyl)-4,5-dihydro-1H-pyrazol-1-carboxamide], the pIC50 against rP2X3 was 6.99; at gpP2X3, 6.44; at human P2X2/3 it was 5.94; at human P2X4, under 4.70; at human PAR-1, under 4.52; at human P2X3 [1], 7.42.
In the case of `Cc1ccc(C2=NN(C(=O)N[C@H](C)c3cnc(C(F)(F)F)nc3)C[C@H]2N2CCCC2=O)cc1` [Compound 32a, (R)-4-(2-oxopyrrolidin-1-yl)-3-(4-methylphenyl)-N-((R)-1-(2-(trifluoromethyl)pyrimidin-5-yl)ethyl)-4,5-dihydro-1H-pyrazol-1-carboxamide], the results for the pIC50 on human P2X4 and at human P2X3 [1] were under 4.70 and 7.09, respectively.
Turning to “(S)-4-(3-oxomorpholin-4-yl)-3-(4-methylphenyl])-N- ((R)-1-(3-methyl-1,2,4-oxadiazol-5-yl)ethyl)-4,5-d ihydro-1H-pyrazol-1-carboxamide [Compound 46]”, the pIC50 on human P2X3 [2] was 6.82.
